Source: patent publication US20030049666A1, “Tissue culture assay for measuring drug induced translational recoding at premature stop codons and frameshift mutations” (University of Utah, priority 2001, published 2003)

Key:
overall translation = test: inhibition of translation monitored by reduction in renilla luciferase activity in control transfections; format: cell-based, human; conditions: highest concentration tested, HEK293 control transfections
Experimental: Transfections were performed using lipofectamine reagent (LifeTechnologies). HEK293 cells (0.15×10^5)were plated in 0.34-cm^2 wells and grown for 24 to 48 hours according to methods well known in the art. All cells were transfected with 0.3 μl of lipofectin and 0.075 μg of plasmid DNA for 15 hours, in serum-free media. Fresh media with serum and varying levels of aminoglycosides (Sigma) were then added, and incubation continued for 24 hours.
(§1) Cells were lysed using passive lysis buffer (Promega, Madison, Wis., and both renilla and firefly luciferase activities were determined using the dual luciferase reporter assay (Promega) on a Dynatech MLX Microtiter Plate Luminometer (Burlington, Mass.). For all reactions, light emission was measured for 2 to 12 seconds after 100μl of luminescence substrate was injected. Stop codon readthrough was calculated by comparing the ratio of firefly to renilla luciferase activity in cultures transfected with p2luc stop codon constructs and compared with ratios obtained from cultures transfected with p2luc control constructs.
A significant difference in stop codon readthrough induced by the aminoglycosides was observed between UGA, UAG, and UAA. […] The nucleotide in the fourth position immediately after the stop codon also contributed to the frequency of stop codon readthrough. This effect is particularly obvious for UGA N, where N=C>U>A≧G in order of most to least stop codon readthrough. […] Inhibition of translation was monitored by examining the reduction in renilla luciferase activity in control transfections.

[1] = system: stop codons UGA N, UAG N, and UAA N; test: dual luciferase (p2luc) stop codon readthrough assay in HEK293 cells; format: cell-based, human; conditions: for concentration at which maximal levels of stop codon readthrough were observed: aminoglycoside in growth media for 24 hours; for readthrough of UAA A stop codon: UAA A construct, tissue culture (HEK293)
Excerpt: The p2luc dual luciferase reporter plasmid system, as described in U.S. Pat. No. 6,143,502, was used to measure the effect of aminoglycosides on stop codon readthrough in tissue culture cells. In this system, the renilla (sea pansy) luciferase and firefly luciferase reporter coding sequences are located on either side of a stop codon (FIG. 1). Stop codon and control constructs (containing a sense codon in place of the stop codon) are transfected in parallel in tissue culture cells. Expression of the upstream renilla luciferase gene provides a way to normalize for differences in transfection efficiencies, translation initiation, and mRNA levels between transfected cultures. […] M. R. Culbertson, RNA surveillance. Unforeseen consequences for gene expression, inherited generic disorders and cancer, 15 Trends Genet. 74-80 (1999). The ability of the dual reporter system to control for differences in mRNA levels between normal and nonsense-containing sequences provides a distinct advantage compared with single reporter or direct protein analysis. After normalization, the differences in downstream firefly luciferase activities between cultures transfected with the stop codon and control sense codon constructs reflect the frequency of stop codon readthrough.
(§2) The stop codons of SEQ ID NO: 1 through SEQ ID NO: 12 and SEQ ID NO: 25 were cloned between the two luciferase genes of p2luc, and control reporter plasmids (SEQ ID NO: 13-24) were produced by changing the first nucleotide of the stop codon to a C. More particularly, complimentary oligonucleotides corresponding to the sequences SEQ ID NO: 1 through SEQ ID NO: 25 were synthesized on an Applied Biosystems model 380C synthesizer (Foster City, Calif.) such that when annealed, they would have SalI- and BamHI-compatible ends. The oligonucleotides were ligated in SalI- and BamHI-digested p2luc vector according to methods well known in the art and transformed to Escherichia coli strain SU1675. DNA sequences were verified by autothermocycler sequencing, and plasmids were purified using the Qiagen Midiprep Kit (Valencia, Calif.) according to the manufacturer's specifications.
The oligonucleotides corresponding to SEQ ID NO: 1 through SEQ ID NO: 12 were identical except for nucleotides 13-16, which contained in-frame stop codons followed by a C, T, A, or G nucleotide. The oligonucleotides corresponding to SEQ ID NO: 13 through SEQ ID NO: 24 were the respective controls, which were identical to the oligonucleotides corresponding to SEQ ID NO: 1 through SEQ ID NO: 12 except the first nucleotide of the stop codon was replaced with a C nucleotide, thus changing the stop codon to a sense codon. The oligonucleotide corresponding to SEQ ID NO: 25 comprises the sequence surrounding the mdx mouse dystrophin mutation.
Translational readthrough of the stop codons of oligonucleotides corresponding to SEQ ID NO: 1 through SEQ ID NO: 12 was determined in a human embryonic kidney cell line (HEK293, e.g., ATCC CRL-1573) grown in the presence of varying amounts of G-418, gentamicin, and paromomycin, which have been particularly effective in inducing stop codon readthrough in yeast. A. Singh et al., Phenotypic suppression and misreading Saccharomyces cerevisiae, 277 Nature 146-148 (1979); E. Palmer et al., Phenotypic suppression of nonsense mutants in yeast by aminoglycoside antibiotics, 277 Nature 148-150 (1979). HEK293 cells were maintained as monolayer cultures growing in Dulbecco's Modified Eagle Medium with 1,000 mg/L of D-glucose, L-glutamine, pyridoxine hydrochloride, and 110 mg/L of sodium pyruvate supplemented with 10% fetal bovine serum and 50 units/ml penicillin/50 µg/ml streptomycin. All cells were incubated at 37° C. in an atmosphere of 5% CO2. All media, penicillin, and streptomycin were obtained from LifeTechnologies (Rockville, Md.); aminoglycosides were purchased from Sigma (St Louis, Mo.); and all sera were obtained from HyClone (Logan, Utah). […]

[2] = system: cystic fibrosis transmembrane conductance regulator (CFTR) protein; conditions: bronchial cell line carrying a nonsense mutation in the CFTR gene; cited from earlier work
[3] = system: mdx premature stop codon / UGA C control; test: dual luciferase stop codon readthrough assay in mouse myoblast C2C12 cell line; format: cell-based
Excerpt: as §2, with “DNA sequences were verified by autothermocycler sequencing, and plasmids were purified using the Qiagen Midiprep Kit (Valencia, Calif.) according to the manufacturer's specifications.” left out
as §1, with “constructs. […]” for “constructs.”

dystrophin = conditions: cited from earlier work

Molecule | reduction in overall translation (overall translation) | concentration at which maximal levels of stop codon readthrough were observed ([1]; HEK293 cells) | readthrough of UAA A stop codon [1] | expression of CFTR protein [2] | stop codon readthrough on a mass basis, comparison of the three aminoglycosides ([1]; HEK293 cells) | gentamicin-induced readthrough of mdx sequence in C2C12 cells compared with UAA A construct in HEK293 cells [3] | effect on premature stop codon in the dystrophin gene of the mdx mouse (dystrophin) | full-length dystrophin protein expressed on aminoglycoside treatment (dystrophin; mdx mouse)
NC[C@@H]1O[C@H](O[C@H]2[C@@H](O)[C@H](O[C@@H]3[C@@H](O)[C@H](N)C[C@H](N)[C@H]3O[C@H]3O[C@H](CO)[C@@H](O)[C@H](O)[C@H]3N)O[C@@H]2CO)[C@H](N)[C@@H](O)[C@@H]1O [paromomycin] | little effect on translation | 2 mg/mL | approximately 1% |  |  |  |  | 
CN[C@@H]1[C@@H](O)[C@@H](O[C@@H]2[C@@H](O)[C@H](O[C@H]3O[C@H]([C@@H](C)O)[C@@H](O)[C@H](O)[C@H]3N)[C@@H](N)C[C@H]2N)OC[C@]1(C)O [G-418] | ~50% | 0.4 mg/mL | approximately 1% | restore the expression | induced the most readthrough on a mass basis |  |  | 
gentamicin | ~20% |  | approximately 1% | restore the expression |  | No increase | can partially reverse the effects of a premature stop codon | 10 to 20%
